In ChEMBL document CHEMBL4350985, “1,3-Dioxane as a scaffold for potent and selective 5-HT1AR agonist with in-vivo anxiolytic, anti-depressant and anti-nociceptive activity” (Eur J Med Chem, 2019):

How the values were obtained:
[1] = biological target: T1, Alpha-1A adrenergic receptor (Rattus norvegicus) (UniProt P43140); assay: Antagonist activity at alpha-1a adrenergic receptor in Wistar rat prostatic vas deferens assessed as inhibition of (-)-noradrenaline-induced contraction
T1 sequence (whole entry): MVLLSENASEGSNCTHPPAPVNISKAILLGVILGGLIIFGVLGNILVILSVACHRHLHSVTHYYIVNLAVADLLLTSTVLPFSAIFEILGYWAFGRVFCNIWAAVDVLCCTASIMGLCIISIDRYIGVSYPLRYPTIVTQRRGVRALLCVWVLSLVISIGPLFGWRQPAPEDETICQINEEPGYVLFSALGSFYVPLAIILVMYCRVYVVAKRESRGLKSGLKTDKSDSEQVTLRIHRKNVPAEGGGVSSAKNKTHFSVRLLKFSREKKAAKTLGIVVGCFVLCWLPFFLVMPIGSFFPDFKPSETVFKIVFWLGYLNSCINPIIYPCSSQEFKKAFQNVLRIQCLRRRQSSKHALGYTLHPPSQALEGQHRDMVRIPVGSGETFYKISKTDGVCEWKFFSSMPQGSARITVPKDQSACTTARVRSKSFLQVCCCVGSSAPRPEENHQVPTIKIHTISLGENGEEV

[2] = biological target: T2, Alpha-1D adrenergic receptor (Rattus norvegicus) (UniProt P23944); assay: Antagonist activity at alpha-1d adrenergic receptor in Wistar rat thoracic aorta assessed as inhibition of (-)-noradrenaline-induced contractions
T2 sequence (whole entry): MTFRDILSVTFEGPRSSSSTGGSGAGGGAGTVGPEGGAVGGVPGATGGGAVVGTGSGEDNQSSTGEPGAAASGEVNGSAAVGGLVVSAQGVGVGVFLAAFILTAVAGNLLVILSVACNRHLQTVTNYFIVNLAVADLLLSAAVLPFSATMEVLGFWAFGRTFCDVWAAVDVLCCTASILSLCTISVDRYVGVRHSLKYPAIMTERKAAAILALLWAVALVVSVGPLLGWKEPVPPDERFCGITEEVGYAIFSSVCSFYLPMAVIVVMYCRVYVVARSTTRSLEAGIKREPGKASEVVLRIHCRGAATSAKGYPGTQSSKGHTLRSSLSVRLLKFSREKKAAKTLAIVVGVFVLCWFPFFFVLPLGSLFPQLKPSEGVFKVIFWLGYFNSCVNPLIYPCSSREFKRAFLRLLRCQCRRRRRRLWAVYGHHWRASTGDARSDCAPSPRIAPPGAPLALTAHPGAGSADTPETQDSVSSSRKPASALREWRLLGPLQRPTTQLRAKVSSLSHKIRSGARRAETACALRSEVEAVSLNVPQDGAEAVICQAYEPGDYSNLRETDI

[3] = biological target: T3, Alpha-1B adrenergic receptor (Homo sapiens, UniProt P35368); assay: Displacement of [3H] prazosin from human cloned adrenoceptor alpha 1B expressed in CHO cell membrane incubated for 30 mins by liquid scintillation counter
T3 sequence (P35368 whole entry): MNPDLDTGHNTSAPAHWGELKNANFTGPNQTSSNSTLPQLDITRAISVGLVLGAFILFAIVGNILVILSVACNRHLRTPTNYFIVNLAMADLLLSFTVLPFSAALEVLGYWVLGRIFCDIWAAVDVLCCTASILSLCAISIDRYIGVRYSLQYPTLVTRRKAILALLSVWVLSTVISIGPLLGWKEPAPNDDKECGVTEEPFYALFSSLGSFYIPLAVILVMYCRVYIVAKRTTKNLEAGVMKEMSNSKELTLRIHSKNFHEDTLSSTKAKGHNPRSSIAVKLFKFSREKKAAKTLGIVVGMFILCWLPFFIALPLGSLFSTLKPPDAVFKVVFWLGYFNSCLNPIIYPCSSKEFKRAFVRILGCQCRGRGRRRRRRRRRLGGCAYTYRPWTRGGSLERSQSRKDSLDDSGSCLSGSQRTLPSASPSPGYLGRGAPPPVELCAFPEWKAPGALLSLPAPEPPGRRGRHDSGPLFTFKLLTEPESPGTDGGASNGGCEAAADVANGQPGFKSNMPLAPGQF

[4] = biological target: T4, 5-hydroxytryptamine receptor 1A (Homo sapiens, UniProt P08908); assay: Displacement of [3H]8-OH-DPAT from human cloned 5HT-1AR transfected in HeLa cells incubated for 30 mins by liquid scintillation counter; type: cell-based
T4 sequence (P08908 whole entry): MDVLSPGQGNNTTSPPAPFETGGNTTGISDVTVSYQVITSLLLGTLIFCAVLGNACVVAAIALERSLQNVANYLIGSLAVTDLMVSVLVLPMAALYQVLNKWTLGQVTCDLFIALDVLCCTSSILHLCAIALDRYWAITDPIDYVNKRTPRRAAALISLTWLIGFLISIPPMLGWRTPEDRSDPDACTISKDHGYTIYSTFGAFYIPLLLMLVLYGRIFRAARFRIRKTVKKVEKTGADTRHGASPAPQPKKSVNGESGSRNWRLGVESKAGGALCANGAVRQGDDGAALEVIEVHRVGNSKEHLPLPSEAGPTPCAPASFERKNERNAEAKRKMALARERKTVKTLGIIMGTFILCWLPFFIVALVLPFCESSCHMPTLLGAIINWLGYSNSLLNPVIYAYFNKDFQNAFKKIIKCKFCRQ

[5] = biological target: T5, 5-hydroxytryptamine receptor 1A (Homo sapiens) (UniProt P08908); assay: Agonist activity at human recombinant 5HT1A receptor expressed in human HeLa cells assessed as increase in [35S]GTPgammaS binding incubated for 20 mins by liquid scintillation counter relative to control; type: functional, cell-based
T5 sequence (whole entry): T4 sequence (P08908 whole entry)

[6] = biological target: T5, 5-hydroxytryptamine receptor 1A (Homo sapiens); conditions: HeLa
[7] = biological target: T6, Alpha-1A adrenergic receptor (Homo sapiens, UniProt P35348); assay: biochemical
T6 sequence (P35348 whole entry): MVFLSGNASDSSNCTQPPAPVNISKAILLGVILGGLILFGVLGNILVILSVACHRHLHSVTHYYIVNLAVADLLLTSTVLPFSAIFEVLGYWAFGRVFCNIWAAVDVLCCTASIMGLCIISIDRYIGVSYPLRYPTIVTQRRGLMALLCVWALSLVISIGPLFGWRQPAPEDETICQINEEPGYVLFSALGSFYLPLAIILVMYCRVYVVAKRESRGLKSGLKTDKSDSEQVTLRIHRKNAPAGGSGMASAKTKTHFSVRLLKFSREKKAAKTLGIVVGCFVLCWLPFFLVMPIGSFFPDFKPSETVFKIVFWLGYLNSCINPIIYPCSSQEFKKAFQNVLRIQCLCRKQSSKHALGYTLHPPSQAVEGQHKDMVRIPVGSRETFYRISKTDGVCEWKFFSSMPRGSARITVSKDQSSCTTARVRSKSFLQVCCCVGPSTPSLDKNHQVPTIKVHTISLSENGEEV
Description: Displacement of [3H] prazosin from human cloned adrenoceptor alpha 1A expressed in CHO cell membrane incubated for 30 mins by liquid scintillation counting

| SMILES | pKb [1] | pKb [2] | Ki [3] | Ki [4] | Emax [5] | pD2 [6] | Ki [7] |
| --- | --- | --- | --- | --- | --- | --- | --- |
| c1ccc(OCCNCC2CCOC(c3ccccc3)(c3ccccc3)O2)cc1 (configuration not stated) | 6.12 | 7.55 | 0.0562 µM | 0.00186 µM | 79.5% | 7.85 | 0.0389 µM |
| COc1ccccc1OCCNCC(CO)OC(c1ccccc1)c1ccccc1 (configuration not stated) | 6.51 | 7.46 | 0.0912 µM | 0.00155 µM | 90.2% | 7.53 | 0.0832 µM |
| COc1ccccc1OCCNCCOC(c1ccccc1)c1ccccc1 | 6.18 | 7.75 | 3.02 µM | 0.00724 µM | 77.3% | 7.38 | 0.0447 µM |
| c1ccc(OCCNCC2COC(c3ccccc3)(c3ccccc3)OC2)cc1 | 5.52 | 6.76 | 0.282 µM | 0.0234 µM | 88.7% | 5.87 | 0.288 µM |
| COc1ccccc1OCCNCC1COC(c2ccccc2)(c2ccccc2)OC1.O=C(O)C(=O)O | 5.98 | 7.06 | 0.0316 µM | 0.00162 µM | 91.6% | 9.22 | 0.0339 µM |
| OCC(CNCCOc1ccccc1)OC(c1ccccc1)c1ccccc1 (configuration not stated) | < 5 | 7.07 | 2.29 µM | 0.00457 µM | 69.5% | 7.51 | 0.141 µM |
| COc1ccccc1OCCNCC[C@@H]1CO[C@H](C(c2ccccc2)c2ccccc2)O1 (relative stereo) | 6.58 | 7.67 | 0.0646 µM | 0.0257 µM | 82.1% | 5.86 | 0.0501 µM |

Further lines, results first:

| pKb [1] | pKb [2] | Ki [3] | Ki [4] | Emax [5] | pD2 [6] | Ki [7] | SMILES |
| --- | --- | --- | --- | --- | --- | --- | --- |
| 7.65 | 7.73 | 0.0251 µM | 0.00135 µM | 78.9% | 7.85 | 0.017 µM | c1ccc(OCCNCCOC(c2ccccc2)c2ccccc2)cc1 |
| 6.74 | 8.17 | 0.0148 µM | 0.000501 µM | 22.1% | 6.16 | 0.00724 µM | COc1ccccc1OCCNCCC1COC(c2ccccc2)(c2ccccc2)O1 (configuration not stated) |
| 6.99 | 8.68 | 0.0158 µM | 0.000776 µM | 65.9% | 8.49 | 0.0245 µM | COc1ccccc1OCCNCC1CCOC(c2ccccc2)(c2ccccc2)O1 (configuration not stated) |
| 6.23 | 7.25 | 0.0309 µM | 0.0155 µM | 53% | 6.24 | 0.0603 µM | COc1ccccc1OCCNCC[C@H]1CO[C@H](C(c2ccccc2)c2ccccc2)O1 (relative stereo) |
